Structures are written as SMILES.

Drawing on US7067491B2, “Heterocyclic compounds having elastase-inhibiting activity and intermediates thereof” (Dainippon Pharmaceutical Co., Ltd., priority 2002, dated 2006), this text covers ED50 and IC50 for three compounds.

Test [1] has as its system pulmonary hemorrhage induced by human neutrophil elastase (HNE). The test is described as follows: Inhibitory activity on pulmonary hemorrhage induced by human neutrophil elastase (HNE). It is filed as in vivo. The following applies: Homo sapiens, Neutrophil, po; hamster, orally administered 30 minutes prior to intratracheal HNE; hemoglobin in bronchoalveolar lavage fluid after 1 hour. The source says:
Experiment 3: Inhibitory Activity on Pulmonary Hemorrhage Induced by Human Neutrophil Elastase (HNE)
This experiment tested on in vivo efficacy of the compound of the present invention. When human neutrophil elastase is intratracheally administered to a hamster, the pulmonary hemorrhage is induced. A definite time later after administration of the elastase, in the bronchoalveolar lavage fluid by washing lung via trachea, hemoglobin is detected.
Hamsters (Syrian strain, 7–10 weeks old male) were divided into groups consisting of 3 to 6, and each group was treated as follows:
(A) A Group to which the Compound of the Present Invention was not Administered (Disease Control):
Physiological saline solution (0.2 ml) in which 25 unit of human neutrophil elastase (Elastin Product Co., Inc.) was dissolved was intratracheally administered to a hamster to induce the pulmonary hemorrhage. One hour later after administration of elastase, the hamsters were sacrificed by exsanquination, and alveoli were transtracheally washed twice with physiological saline (2.5 ml), and the hemoglobin concentration in the bronchoalveolar lavage fluid (5 ml) was determined by measuring the absorbance at 414 nm.
(B) A Group to which the Compound of the Present Invention was Administered:
A fixed amount of the compound of the present invention was dissolved in dimethyl sulfoxide (DMSO), and thereto was added 0.5% tragacanth gum to prepare a suspension. The suspension was orally administered to a hamster, 30 minutes prior to the administration of human neutrophil elastase (HNE) (final concentration of DMSO, 1%), and then, human neutrophil elastase was administered in the same manner as the above method (A). After 1 hour, the concentration of hemoglobin in the bronchoalveolar lavage fluid was determined in the same manner as the above method (A).
The hemorrhage inhibition activity of the compound of the present invention is represented as the hemorrhage inhibiting rate in the following formula.
The dose of the compound of the present invention to be required to achieve 50% inhibition of pulmonary hemorrhage (i.e., ED50) was calculated based on the administration dose-hemorrhage inhibiting rate curve.
As a comparative example, the same experiment was also carried out on a comparative compound used in Experiment 1.
Some of the compounds of the present invention were compared with the comparative compound on the hemorrhage inhibitory rate at the dose of 3 mg/kg.

Test [2] addresses T1, human neutrophil elastase (Homo sapiens, UniProt P08246).
T1 construct: purchased Elastine Product Co., Inc
T1 sequence (P08246 30-267): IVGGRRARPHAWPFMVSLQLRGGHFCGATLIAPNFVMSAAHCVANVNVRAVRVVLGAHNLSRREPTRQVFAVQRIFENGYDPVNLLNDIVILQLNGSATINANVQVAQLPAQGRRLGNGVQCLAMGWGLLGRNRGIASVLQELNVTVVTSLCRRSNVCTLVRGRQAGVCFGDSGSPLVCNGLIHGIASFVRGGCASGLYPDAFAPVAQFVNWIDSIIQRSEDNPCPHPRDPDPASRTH
The test is described as follows: Inhibitory activity on human neutrophil elastase (HNE) in vitro. It is filed as biochemical. The following applies: human neutrophil elastase 0.2 U/ml, substrate MeO-Suc-Ala-Ala-Pro-Val-pNA 0.5 mM, 37° C., pH 7.5. Here is the method:
Experiment 1: Inhibitory Activity on Human Neutrophil Elastase (HNE)
The inhibitory activity of the compound of the present invention in vitro on human neutrophil elastase was examined by this experiment.
To 100 mM of HEPES {[N-(2-hydroxyethyl)piperazine-N′-(2-ethanesulfonic acid)], pH 7.5}buffer solution containing 1M NaCl and 0.001% Brij-35 (polyoxyethylene lauryl ether) were added human neutrophil elastase (final concentration: 0.2 U/ml, Elastine Product Co., Inc.) and the compound of the present invention (dissolved in 10% dimethyl sulfoxide; final concentration: 10^−10˜3×10^−3 M). The mixture was pre-incubated for 3 minutes at 37° C. Thereto was added MeO-Suc-Ala-Ala-Pro-Val-pNA (methoxysuccinyl-alanyl-alanyl-prolyl-valyl-p-nitroanilide (Sigma Chemical Co.)) as a substrate to give the final concentration of 0.5 mM, and the reaction was initiated. Under this condition, the producing rate of the reaction product, p-nitroanilide (pNA) at 37° C. was estimated by measuring the absorbance at 404 nm for 3 minutes.
The inhibitory activity of the compound of the present invention against human neutrophil elastase (HNE) is calculated according to the following formula.
The concentration of the compound of the present invention to be required to achieve 50% HNE inhibition (i.e., IC50) was calculated based on the concentration-inhibitory rate curve of the compound of the present invention.
As a comparative compound, N-[(1S)-2-((2S)-2-{N-[(1S)-3,3,3-trifluoro-1-(methylethyl)-2-oxopropyl]carbamoyl}pyrrolidinyl)-1-(methylethyl)-2-oxoethyl](imidazol-4-yl)carboxamide was used, and the same assay was carried out. The planar structure of this compound was the same as one of compound (22) disclosed in J. Med. Chem., 1997, 40, 1876–1885.

Test [3] concerns the target T2, porcine pancreas elastase (Sus scrofa, UniProt P00772).
T2 construct: purchased Elastin Products Co., Inc
The test is described as follows: Inhibitory activity against porcine pancreas elastase. The following applies: porcine pancreas elastase 40 ng/ml, substrate Suc-Ala-Ala-Ala-pNA 2.5 mM. The class given is biochemical. On the procedure:
Experiment 2: Inhibitory Activity Against Porcine Pancreas Elastase
The inhibitory activity was measured in the same manner as experiment 1, except for using porcine pancreas elastase (Elastin Products Co., Inc., final concentration 40 ng/ml) as a target enzyme and Suc-Ala-Ala-Ala-pNA (succinyl-alanyl-alanyl-alanyl-p-nitroanilide, Peptide Research, final concentration 2.5 mM) as a substrate.

T2 sequence (P00772 27-266): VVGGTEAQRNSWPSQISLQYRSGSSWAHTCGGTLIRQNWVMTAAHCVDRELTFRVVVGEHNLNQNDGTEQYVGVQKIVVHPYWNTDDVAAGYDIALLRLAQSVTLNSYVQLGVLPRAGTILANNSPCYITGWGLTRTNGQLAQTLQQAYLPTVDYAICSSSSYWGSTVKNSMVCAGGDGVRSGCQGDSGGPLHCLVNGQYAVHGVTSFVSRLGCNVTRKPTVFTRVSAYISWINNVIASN

The term ED50 denotes the midpoint of the dose-response relation. One may read the IC50 as the concentration that gives 50% inhibition. A high value points to weaker potency. `CC(C)[C@H](NC(=O)c1noc2ccccc12)C(=O)N1CCC[C@H]1C(=O)N[C@H](C(=O)C(F)(F)F)C(C)C` [Example 2, N-[(1S)-2-((2S)-2-{N-[(1S)-3,3,3-trifluoro-1-(methylethyl)-2-oxopropyl]carbamoyl}pyrrolidinyl)-1-(methylethyl)-2-oxoethyl](benzo [d]isoxazol-3-yl)carboxamide] gave an ED50 in test [1] of 0.86 mg/kg. The results for the IC50 in test [2] and in test [3] were 0.0081 µM and 0.215 µM, respectively.
In test [1], `Cc1nnsc1C(=O)N[C@H](C(=O)N1CCC[C@H]1C(=O)N[C@H](C(=O)C(F)(F)F)C(C)C)C(C)C` [Example 3, N-[(1S)-2-((2S)-2-{N-[(1S)-3,3,3-trifluoro-1-(methylethyl)-2-oxopropyl]carbamoyl}pyrrolidinyl)-1-(methylethyl)-2-oxoethyl]-(4-methyl-1,2,3-thiadiazol-5-yl)carboxamide] gave an ED50 of 1.6 mg/kg. In addition, the IC50 in test [2] came to 0.013 µM; in test [3], 0.155 µM.
For `Cc1noc(C)c1C(=O)N[C@H](C(=O)N1CCC[C@H]1C(=O)N[C@H](C(=O)C(F)(F)F)C(C)C)C(C)C` [Example 1, N-[(1S)-2-((2S)-2-{N-[(1S)-3,3,3-trifluoro-1-(methylethyl)-2-oxopropyl]carbamoyl}pyrrolidinyl)-1-(methylethyl)-2-oxoethyl](3,5-dimethylisoxazol-4-yl)carboxamide], in that order: 2.6 mg/kg, 0.017 µM and 0.154 µM.
